According to patent US7595401B2, “Therapeutic compounds and their use in cancer” (Myriad Pharmaceuticals, Inc., priority 2006, dated 2009):

system: purified human Hsp90; assay: Binding Assay: fluorescence polarization with BODIPY-labeled geldanamycin; details: 5 μM compound, BODIPY-GM 10 nM, Hsp90 30 nM
Method: Compound binding to purified Hsp90 was monitored using BODIPY-labeled geldanamycin (BODIPY-GM) in a fluorescence polarization assay adapted from Kim et al. (Journal of Biomolecular Screening 2004, 9(5):375-381). Compound dilutions (in 100% DMSO) were added to black-bottom 96-well plates (Greiner; 2% DMSO final), and equal volumes of BODIPY-GM (10 nM final) and purified human Hsp90 (Stressgen, SPP-770; 30 nM final) in assay buffer (20 mM HEPES-KOH pH 7.3, 50 mM KCl, 5 mM MgCl2, 20 mM Na2MoO4, 0.01% NP-40, 0.1 mg/mL bovine gamma globulin [Invitrogen, P2045], 2 mM DTT) were added sequentially to yield a final volume of 50 microliters. Plates were incubated overnight at room temperature. Parallel and perpendicular fluorescence measurements were read (LJL BioSystems Analyst AD plate reader) with excitation/emission wavelengths of 485/530 nm. Background fluorescence (buffer only) was subtracted, and fluorescence polarization (FP) values, expressed in mP units, were calculated from parallel and perpendicular fluorescence readings as follows: FP=(parallel−perpendicular)/(parallel+perpendicular)*1000
Percent inhibition was calculated by normalizing the FP values to those obtained in parallel reactions containing DMSO and subtracting these normalized values from 100%. Intrinsic compound fluorescence was independently monitored, and FP data points confounded by compound fluorescence were excluded from the analysis.

% Inhibition at 5 μM Compound Concentration [%]	Structure (SMILES)
49.0	N#Cc1cc2c(cc1Sc1nc3c(N)ncn(CCc4ccccc4)c-3n1)OCO2 [Example 321, 6-{[6-Amino-3-(2-phenylethyl)-3H-purin-8-yl]thio}-1,3-benzodioxole-5-carbonitrile]
0.00	COc1ccc(Sc2nc3c(N)ncn(CCC4CCN(C(C)=O)CC4)c-3n2)cc1F [Example 568, 3-[2-(1-Acetylpiperidin-4-yl)ethyl]-8-[(3-fluoro-4-methoxyphenyl)thio]-3 H-purin-6-amine]
0.0	Nc1ncn(CCc2ccccc2C(F)(F)F)c2nc(Sc3cc4c(cc3Br)OCO4)nc1-2 [Example 291, 8-[(6-Bromo-1,3-benzodioxol-5-yl)thio]-3-{2-[2-(trifluoromethyl)phenyl]ethyl}-3H-purin-6-amine]
0	COc1ccc(OC)c(Sc2nc3c(N)ncnc3n2CC(O)c2ccc(Cl)cc2Cl)c1 (stereo not shown) [Example 107, 2-[6-Amino-8-(2,5-dimethoxy-phenylsulfanyl)-purin-9-yl]-1-(2,4-dichloro-phenyl)ethanol]
5.00	CC12CCC(CC(CCn3cnc(N)c4nc(Sc5cc6c(cc5Br)OCO6)nc3-4)C1)O2 (stereo not shown) [Example 608, 8-[(6-Bromo-1,3-benzodioxol-5-yl)thio]-3-{2-[1-methyl-8-oxabicyclo[3.2.1]oct-3-yl]ethyl}-3 H-purin-6-amine]
12	CCC(Cn1c(Sc2cc(OC)ccc2OC)nc2c(N)ncnc21)c1ccccc1 (stereo not shown) [Example 87, 8-(2,5-Dimethoxy-phenylsulfanyl)-9-(2-phenyl-butyl)-9H-purin-6-ylamine]
57	CC(C)(C)C(=O)N1CCCC(CCn2cnc(N)c3nc(Sc4cc5c(cc4Br)OCO5)nc2-3)C1 (stereo not shown) [Example 450, 8-[(6-Bromo-1,3-benzodioxol-5-yl)thio]-3-{2-[1-(2,2-dimethylpropanoyl)piperidin-3-yl]ethyl}-3H-purin-6-amine]
0.00	Cc1cc(=O)oc2cc(Sc3nc4c(N)ncn(CCC5CCN(C=O)CC5)c-4n3)ccc12 [Example 533, 4-(2-{6-Amino-8-[(4-methyl-2-oxo-2 H-chromen-7-yl)thio]-3 H-purin-3-yl}ethyl)piperidine-1-carbaldehyde]
18	CC(C)(C)OC(=O)N1CC(CCn2cnc(N)c3nc(Sc4cc5c(cc4Br)OCO5)nc2-3)C1 [Example 459, tert-Butyl 3-(2-{6-amino-8-[(6-bromo-1,3-benzodioxol-5-yl)thio]-3H-purin-3-yl}ethyl)azetidine-1-carboxylate]

same assay, conditions: BODIPY-GM 10 nM, Hsp90 30 nM

IC50 [nM]	Structure (SMILES)
900	Nc1ncn(CCN2CCCCC2)c2nc(Sc3cc4c(cc3Br)OCO4)nc1-2 [Example 492, 8-[(6-Bromo-1,3-benzodioxol-5-yl)thio]-3-(2-piperidin-1-ylethyl)-3 H-purin-6-amine]
> 5000	CC(C)(C)OC(=O)N1CCC[C@H]1C(=O)N1CCC(CCn2c(Sc3cc4c(cc3Br)OCO4)nc3c(N)ncnc32)CC1 [Example 730, tert-Butyl(2S)-2-{[4-(2-{6-amino-8-[(6-bromo-1,3-benzodioxol-5-yl)thio]-9H-purin-9-yl}ethyl)piperidin-1-yl]carbonyl}pyrrolidine-1-carboxylate]
1800	CC(C)(C)n1nnnc1N1CCC(CCn2c(Sc3cc4c(cc3Br)OCO4)nc3c(N)ncnc32)CC1 [Example 614, 8-[(6-Bromo-1,3-benzodioxol-5-yl)thio]-9-{2-[1-(1-tert-butyl-1 H-tetrazol-5-yl)piperidin-4-yl]ethyl}-9 H-purin-6-amine]
8800	COc1ccc(OC)c(Sc2nc3c(N)ncnc3n2CCC2CCNCC2)c1 [Example 469, 8-[(2,5-Dimethoxyphenyl)thio]-9-(2-piperidin-4-ylethyl)-9 H-purin-6-amine]
100	CS(=O)(=O)N1CCCCC1CCn1c(Sc2cc3c(cc2Br)OCO3)nc2c(N)ncnc21 (stereo not shown) [Example 372, 8-[(6-Bromo-1,3-benzodioxol-5-yl)thio]-9-{2-[1-(methylsulfonyl)piperidin-2-yl]ethyl}-9H-purin-6-amine]
1100	CC(C)(C)OC(=O)N1CCCC(Cn2c(Sc3cc4c(cc3Br)OCO4)nc3c(N)ncnc32)C1 (stereo not shown) [Example 641, tert-Butyl 3-({6-amino-8-[(6-bromo-1,3-benzodioxol-5-yl)thio]-9 H-purin-9-yl}methyl)piperidine-1-carboxylate]
> 4000	COc1cc(C#N)c(Sc2nc3c(N)ncn(CCC4CCN(C(C)=O)CC4)c-3n2)cc1OC [Example 623, 2-({3-[2-(1-Acetylpiperidin-4-yl)ethyl]-6-amino-3 H-purin-8-yl}thio)-4,5-dimethoxybenzonitrile]
> 5000	Nc1ncnc2c1nc(Sc1cc(OCc3ccccc3)c(OCc3ccccc3)cc1Br)n2CCC1CCN(C=O)CC1 [Example 553, 4-[2-(6-Amino-8-{[4,5-bis (benzyloxy)-2-bromophenyl]thio}-9 H-purin-9-yl)ethyl]piperidine-1-carbaldehyde]
190	CC(C)(C)OC(=O)NC(CCn1c(Sc2cc3c(cc2Br)OCO3)nc2c(N)ncnc21)C1CCOCC1 (stereo not shown) [Example 682, [3-[6-Amino-8-(6-bromo-benzo[1,3]dioxol-5-ylsulfanyl)-purin-9-yl]-1-(tetrahydro-pyran-4-yl)-propyl]-carbamic acid tert-butyl ester]
300	CCC(C)C(Cn1c(Sc2cc3c(cc2Br)OCO3)nc2c(N)ncnc21)c1ccccc1 (stereo not shown) [Example 99, 8-(6-Bromo-benzo[1,3]dioxol-5-ylsulfanyl)-9-(3-methyl-2-phenyl-pentyl)-9H-purin-6-ylamine]
> 8000	Nc1ncnc2c1nc(Sc1cccc(OC(F)F)c1)n2CCc1c(F)cccc1Cl [Example 254, 9-[2-(2-Chloro-6-fluorophenyl)ethyl]-8-{[3-(difluoromethoxy)phenyl]thio}-9H-purin-6-amine]
1300	CC(C)(C)NS(=O)(=O)c1ccc(CCn2c(Sc3cc4c(cc3Br)OCO4)nc3c(N)ncnc32)cc1 [Example 273, 4-(2-{6-Amino-8-[(6-bromo-1,3-benzodioxol-5-yl)thio]-9H-purin-9-yl}ethyl)-N-(tert-butyl)benzenesulfonamide]
> 10000	COc1ccc(OC)c(Sc2nc3c(N)ncn(CC4(c5ccc(Cl)cc5)CCC4)c-3n2)c1 [Example 62, 3-[1-(4-chloro-phenyl)-cyclobutylmethyl]-8-(2,5-dimethoxy-phenylsulfanyl)-3H-purin-6-ylamine]
810	Nc1ncnc2c1nc(Sc1cc3c(cc1Br)OCO3)n2CCC1CCCCN1S(=O)(=O)C(F)(F)F (stereo not shown) [Example 396, 8-[(6-Bromo-1,3-benzodioxol-5-yl)thio]-9-(2-{1-[(trifluoromethyl)sulfonyl]piperidin 2-yl}ethyl)-9H-purin-6-amine]
300	CC(C)(C)OC(=O)NC(CCn1c(Sc2cc3c(cc2Br)OCO3)nc2c(N)ncnc21)C1CC1 (stereo not shown) [Example 662, tert-Butyl (3-{6-amino-8-[(6-bromo-1,3-benzodioxol-5-yl)thio]-9H-purin-9-yl}-1-cyclopropylpropyl)carbamate]

Structure (SMILES)	IC50 [nM]
COc1ccc(OC)c(Sc2nc3c(N)ncnc3n2CCN2CCN(C)CC2)c1 [Example 631, 8-[(2,5-Dimethoxyphenyl)thio]-9-[2-(4-methylpiperazin-1-yl)ethyl]-9 H-purin-6-amine]	2000
